In paper PMC8580050, “Improvement of the antimicrobial potency, pharmacokinetic and pharmacodynamic properties of albicidin by incorporation of nitrogen atoms” (Chemical Science, 2021):
≈ marks a conversion by molar mass, not a printed value. Like-named read-outs stand apart in the source and are kept apart here.

What was measured:
E. coli DSM 1116 = experiment: MIC determination (broth microdilution); type: cell-based, Escherichia coli; settings: Escherichia coli, DSM1116
Description: (§1) 1.1.1 In vitro experiments
(§2) Determination of Minimal inhibitory concentrations (MIC)
(§3) Approved Standard M07-A9.1
(§4) CFU mL-1. […] Albicidin and […]
(§5) and serially diluted in DMSO (100%). […]
(§6) in 0.1 N HCL, respectively.
(§7) One row of each well plate served as a […]
(§8) sterility control (only MHB II-media). […]
(§9) adding 5 µL DMSO to several wells. […]
(§10) for growth inhibition by naked eye.
(§11) Microorganisms and Cell Cultures (DSMZ): […]

S. Typhimurium TA100 = experiment: MIC determination (broth microdilution); type: cell-based, Salmonella typhimurium; settings: Salmonella enterica; S. Typhimurium TA100; read-out: MIC
Description: as §1, §2, §3, §4, §5, §6, §7, §8, §9, §10, §11

B. subtilis DSM 10 = experiment: MIC determination (broth microdilution); type: cell-based; settings: Bacillus subtilis, DSM10; B. subtilis DSM 10; read-out: MIC
Description: as §1, §2, §3, §4, §5, §6, §7, §8, §9, §10, §11

E. coli BW25113 = experiment: MIC determination (broth microdilution); type: cell-based; settings: Escherichia coli
Description: as §1, §2, §3, §4, §5, §6, §7, §8, §9, §10, §11

M. luteus DSM1790 = experiment: MIC determination (broth microdilution); type: cell-based, Micrococcus luteus; settings: M. luteus DSM1790
Description: as §1, §2, §3, §4, §5, §6, §7, §8, §9, §10, §11

M. phlei DSM 750 = experiment: MIC determination (broth microdilution); type: cell-based, Mycobacterium phlei; settings: Mycolicibacterium phlei, DSM750; M. phlei DSM 750; read-out: MIC
Description: as §1, §2, §3, §4, §5, §6, §7, §8, §9, §10

[1] = test system: E. coli DSM 1116 + 50% Human Serum; experiment: MIC determination in presence of 50% human serum; type: cell-based; settings: Escherichia coli, DSM1116; E. coli DSM 1116 + 50% Human Serum; read-out: MIC
Source text: This investigation was completed by assessment of the antibacterial activity in presence of human plasma (50%) (Table 1), since high plasma protein binding can severely impair antibacterial activity and thus efficacy.
as §1, §2, §3, §4, §5, §6, §7, §8, §9, §10, §11

E. coli DNA gyrase = molecular target: T1, E. coli DNA gyrase (Escherichia coli, UniProt P0AES4+P0AES6); experiment: E. coli gyrase supercoiling inhibition assay; type: biochemical; parameters: key: ↑: for stronger inhibition; ≈: for equal inhibition; ↓: for diminished inhibition compared to albicidin 1; settings: constant concentration of 45 nM, compared to albicidin 1
T1 construct: purchased inspiralis Limited, Norwich, UK
Description: Escherichia coli Gyrase Supercoiling Inhibition Assay
loaded on an agarose gel.
2-15. […] Addition of DNA
All derivatives were tested at a concentration of […]

DNA gyrase = settings: read-out: half maximum inhibitory concentration (IC50); cited from earlier work
[2] = E. coli DSM 1116, read-out: MIC
[3] = Micrococcus luteus, read-out: MIC

T1 sequence (P0AES4 whole entry, one chain of several): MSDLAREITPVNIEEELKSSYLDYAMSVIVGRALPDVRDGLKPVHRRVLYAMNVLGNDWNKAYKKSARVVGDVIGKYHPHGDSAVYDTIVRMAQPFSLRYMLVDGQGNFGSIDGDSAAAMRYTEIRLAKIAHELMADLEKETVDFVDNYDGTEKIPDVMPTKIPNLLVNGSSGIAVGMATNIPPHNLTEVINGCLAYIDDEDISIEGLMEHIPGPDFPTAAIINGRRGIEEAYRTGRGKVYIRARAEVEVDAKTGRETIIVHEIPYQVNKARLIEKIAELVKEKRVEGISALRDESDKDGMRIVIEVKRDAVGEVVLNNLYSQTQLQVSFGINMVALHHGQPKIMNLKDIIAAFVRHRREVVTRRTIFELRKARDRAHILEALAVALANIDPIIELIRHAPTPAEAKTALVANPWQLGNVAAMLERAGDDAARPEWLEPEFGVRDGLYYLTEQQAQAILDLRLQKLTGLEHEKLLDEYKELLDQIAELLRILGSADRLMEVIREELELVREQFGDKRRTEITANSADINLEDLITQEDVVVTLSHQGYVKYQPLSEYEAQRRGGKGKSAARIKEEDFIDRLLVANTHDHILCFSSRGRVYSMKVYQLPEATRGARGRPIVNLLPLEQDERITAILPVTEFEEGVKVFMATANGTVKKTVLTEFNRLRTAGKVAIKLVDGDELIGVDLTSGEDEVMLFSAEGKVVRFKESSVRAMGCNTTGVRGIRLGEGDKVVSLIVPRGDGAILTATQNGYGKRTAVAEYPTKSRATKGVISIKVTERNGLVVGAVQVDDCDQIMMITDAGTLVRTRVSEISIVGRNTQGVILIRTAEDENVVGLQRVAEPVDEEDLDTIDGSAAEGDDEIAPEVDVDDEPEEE

Q: What does the source list for COc1c(NC(=O)c2ccc(NC(=O)c3ccc(NC(=O)[C@H](Cc4c[nH]nn4)NC(=O)c4ccc(NC(=O)/C(C)=C/c5ccc(O)cc5)cc4)cc3)nc2)ccc(C(=O)O)c1O [Compound 10]?
A: MIC (E. coli DSM 1116; [2]): 0.063 µg/mL (≈ 0.075 µM); MIC (S. Typhimurium TA100): 0.016 µg/mL (≈ 0.0191 µM); MIC (B. subtilis DSM 10): 2 µg/mL (≈ 2.38 µM); MIC (E. coli BW25113): 0.063 µg/mL (≈ 0.075 µM); MIC (M. luteus DSM1790): 32.0 µg/mL (≈ 38.1 µM); MIC (M. luteus DSM1790; [3]): 32 µg/mL (≈ 38.1 µM); MIC (M. phlei DSM 750): 2 µg/mL (≈ 2.38 µM); MIC [1]: 2 µg/mL; E. coli gyrase inhibition (E. coli DNA gyrase): ↓

Q: With cystobactamid as the molecule, how does the IC50 (DNA gyrase) read?
A: 80 nM

Q: What does the source list for COc1c(NC(=O)c2ccc(NC(=O)c3ccc(NC(=O)[C@H](Cc4c[nH]nn4)NC(=O)c4ccc(NC(=O)/C(C)=C/c5ccc(O)cc5)cc4)cc3)cc2)ccc(C(=O)O)c1O [Compound 11, reference compound]?
A: MIC (E. coli DSM 1116; [2]): 0.063 µg/mL (≈ 0.0751 µM); MIC (S. Typhimurium TA100): 0.063 µg/mL (≈ 0.0751 µM); MIC (B. subtilis DSM 10): 4 µg/mL (≈ 4.77 µM); MIC (E. coli BW25113): 0.031 µg/mL (≈ 0.037 µM); MIC (M. luteus DSM1790; [3]): 8 µg/mL (≈ 9.54 µM); MIC (M. phlei DSM 750): 4 µg/mL (≈ 4.77 µM); MIC [1]: 4 µg/mL; E. coli gyrase inhibition (E. coli DNA gyrase): ≈

Q: Which results are given for COc1c(NC(=O)c2ccc(NC(=O)c3ccc(NC(=O)[C@H](Cc4c[nH]nn4)NC(=O)c4ccc(NC(=O)/C(C)=C/c5ccc(O)cc5)nc4)cc3)c(OC)c2O)ccc(C(=O)O)c1O [Compound 6]?
A: MIC (E. coli DSM 1116; [2]): 0.016 µg/mL (≈ 0.0181 µM); MIC (S. Typhimurium TA100): 0.016 µg/mL (≈ 0.0181 µM); MIC (B. subtilis DSM 10): 0.5 µg/mL (≈ 0.564 µM); MIC (E. coli BW25113): 0.063 µg/mL (≈ 0.0711 µM); MIC (M. luteus DSM1790; [3]): 4 µg/mL (≈ 4.52 µM); MIC (M. phlei DSM 750): 4 µg/mL (≈ 4.52 µM); MIC [1]: 1 µg/mL; E. coli gyrase inhibition (E. coli DNA gyrase): ↓

Q: For COc1c(NC(=O)c2ccc(NC(=O)c3ccc(NC(=O)[C@H](Cc4c[nH]nn4)NC(=O)c4ccc(NC(=O)/C(C)=C/c5cccnc5)cc4)cc3)c(OC)c2O)ccc(C(=O)O)c1O [Compound 4], which MIC (E. coli DSM 1116) is on record?
A: 0.125 µg/mL (≈ 0.144 µM)

Q: And the MIC (S. Typhimurium TA100)?
A: 0.125 µg/mL (≈ 0.144 µM)

Q: What about the MIC (B. subtilis DSM 10) of the same molecule?
A: 2 µg/mL (≈ 2.3 µM)

Q: What about the MIC (E. coli BW25113) of the same molecule?
A: 0.5 µg/mL (≈ 0.575 µM)

Q: And the MIC (M. luteus DSM1790; [3])?
A: 32 µg/mL (≈ 36.8 µM)

Q: And the MIC (M. phlei DSM 750)?
A: 32 µg/mL (≈ 36.8 µM)

Q: What about the MIC [1] of the same molecule?
A: 8 µg/mL

Q: And the “E. coli gyrase inhibition” value (E. coli DNA gyrase)?
A: ↓

Q: What does the source list for COc1c(NC(=O)c2ccc(NC(=O)c3ccc(NC(=O)[C@H](Cc4c[nH]nn4)NC(=O)c4ccc(NC(=O)/C(C)=C/c5ccccn5)cc4)cc3)c(OC)c2O)ccc(C(=O)O)c1O [Compound 3]?
A: MIC (E. coli DSM 1116; [2]): 0.25 µg/mL (≈ 0.287 µM); MIC (S. Typhimurium TA100): 0.125 µg/mL (≈ 0.144 µM); MIC (B. subtilis DSM 10): 4 µg/mL (≈ 4.6 µM); MIC (E. coli BW25113): 0.5 µg/mL (≈ 0.575 µM); MIC (M. luteus DSM1790; [3]): 32 µg/mL (≈ 36.8 µM); MIC (M. phlei DSM 750): 64 µg/mL (≈ 73.6 µM); MIC [1]: 8 µg/mL; E. coli gyrase inhibition (E. coli DNA gyrase): ↓

Q: For COc1c(NC(=O)c2ccc(NC(=O)[C@H](Cc3c[nH]nn3)NC(=O)c3ccc(NC(=O)/C(C)=C/c4ccc(O)cc4)cc3)cc2)ccc(C(=O)Nc2ccccc2)c1O [Compound 15], which MIC (E. coli DSM 1116; [2]) is on record?
A: 1 µg/mL (≈ 1.26 µM)

Q: And the MIC (S. Typhimurium TA100)?
A: 1 µg/mL (≈ 1.26 µM)

Q: And the MIC (B. subtilis DSM 10)?
A: 2 µg/mL (≈ 2.52 µM)

Q: And the MIC (E. coli BW25113)?
A: 0.5 µg/mL (≈ 0.629 µM)

Q: What about the MIC (M. luteus DSM1790; [3]) of the same molecule?
A: 1 µg/mL (≈ 1.26 µM)

Q: And the MIC (M. phlei DSM 750)?
A: 2 µg/mL (≈ 2.52 µM)

Q: What about the MIC [1] of the same molecule?
A: ≥ 8 µg/mL

Q: And the “E. coli gyrase inhibition” value (E. coli DNA gyrase)?
A: ≈
